# Values quoted from earlier work in PMC8865417, “Receptor Interaction Profiles of 4-Alkoxy-3,5-Dimethoxy-Phenethylamines (Mescaline Derivatives) and Related Amphetamines” (Frontiers in Pharmacology, 2022).
# Key:
# Set-up in all cases: method as in Simmler et al. (2013)
# rat TAAR1 = target: T1, rat TAAR1 (Rattus norvegicus, UniProt Q923Y9); conditions: reference substance; ref Simmler et al. (2013); read-out: rTAAR1 Ki; cited from earlier work
# T1 construct: expressed in transfected cells; host or cells: HEK 293 cells (membrane preparations)
# mouse TAAR1 = target: T2, mouse TAAR1 (Mus musculus, UniProt Q923Y8); conditions: reference substance; ref Simmler et al. (2013); read-out: mTAAR1 Ki; cited from earlier work
# T2 construct: expressed in transfected cells; host or cells: HEK 293 cells (membrane preparations)
# hα1A adrenergic receptor = target: T3, hα1A adrenergic receptor (Homo sapiens, UniProt P35348); conditions: reference substance; ref Simmler et al. (2013); cited from earlier work
# T3 construct: expressed in transfected cells; host or cells: Chinese hamster ovary cells (membrane preparations)
# T3 sequence (P35348 1-466): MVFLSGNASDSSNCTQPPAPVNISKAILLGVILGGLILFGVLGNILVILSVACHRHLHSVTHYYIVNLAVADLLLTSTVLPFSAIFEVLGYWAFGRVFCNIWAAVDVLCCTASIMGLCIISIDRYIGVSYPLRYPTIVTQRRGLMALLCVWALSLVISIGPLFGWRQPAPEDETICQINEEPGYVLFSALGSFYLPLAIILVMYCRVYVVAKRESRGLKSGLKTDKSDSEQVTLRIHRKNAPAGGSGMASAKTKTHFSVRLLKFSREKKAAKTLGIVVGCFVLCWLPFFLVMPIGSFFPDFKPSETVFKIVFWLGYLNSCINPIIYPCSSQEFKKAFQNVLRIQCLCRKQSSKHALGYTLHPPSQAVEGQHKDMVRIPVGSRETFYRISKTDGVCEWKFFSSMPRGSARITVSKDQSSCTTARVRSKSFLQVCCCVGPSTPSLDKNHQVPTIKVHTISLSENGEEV
# hα2A adrenergic receptor = target: T4, hα2A adrenergic receptor (Homo sapiens, UniProt P08913); conditions: reference substance; ref Simmler et al. (2013); cited from earlier work
# T4 construct: expressed in transfected cells; host or cells: Chinese hamster lung cells (membrane preparations)
# T4 sequence (P08913 1-465): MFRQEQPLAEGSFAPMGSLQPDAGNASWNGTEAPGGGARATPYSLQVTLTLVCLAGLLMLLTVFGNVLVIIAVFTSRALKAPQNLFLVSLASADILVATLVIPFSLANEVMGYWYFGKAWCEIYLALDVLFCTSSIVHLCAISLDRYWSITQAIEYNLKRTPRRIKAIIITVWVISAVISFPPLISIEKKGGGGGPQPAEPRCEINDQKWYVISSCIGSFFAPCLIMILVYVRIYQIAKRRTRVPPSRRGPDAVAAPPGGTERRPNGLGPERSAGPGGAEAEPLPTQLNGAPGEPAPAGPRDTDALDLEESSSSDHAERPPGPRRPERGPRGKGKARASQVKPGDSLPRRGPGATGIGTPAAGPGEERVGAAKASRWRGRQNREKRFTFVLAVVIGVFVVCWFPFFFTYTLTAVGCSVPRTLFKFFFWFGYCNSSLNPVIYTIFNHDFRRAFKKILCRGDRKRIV
# [1] = target: T5, dopaminergic hD2 receptor (Homo sapiens, UniProt P14416); conditions: reference substance; ref Simmler et al. (2013); cited from earlier work
# T5 construct: expressed in transfected cells; host or cells: HEK 293 cells (membrane preparations)
# hNET = target: T6, hNET (Homo sapiens, UniProt P23975); conditions: reference substance; ref Simmler et al. (2013); cited from earlier work
# T6 construct: expressed in transfected cells; host or cells: HEK 293 cells (membrane preparations)
# hDAT = target: T7, hDAT (Homo sapiens, UniProt Q01959); conditions: reference substance; ref Simmler et al. (2013); cited from earlier work
# T7 construct: expressed in transfected cells; host or cells: HEK 293 cells (membrane preparations)
# hSERT = target: T8, hSERT (Homo sapiens, UniProt P31645); conditions: reference substance; ref Simmler et al. (2013); cited from earlier work
# T8 construct: expressed in transfected cells; host or cells: HEK 293 cells (membrane preparations)
# T8 sequence (P31645 whole entry): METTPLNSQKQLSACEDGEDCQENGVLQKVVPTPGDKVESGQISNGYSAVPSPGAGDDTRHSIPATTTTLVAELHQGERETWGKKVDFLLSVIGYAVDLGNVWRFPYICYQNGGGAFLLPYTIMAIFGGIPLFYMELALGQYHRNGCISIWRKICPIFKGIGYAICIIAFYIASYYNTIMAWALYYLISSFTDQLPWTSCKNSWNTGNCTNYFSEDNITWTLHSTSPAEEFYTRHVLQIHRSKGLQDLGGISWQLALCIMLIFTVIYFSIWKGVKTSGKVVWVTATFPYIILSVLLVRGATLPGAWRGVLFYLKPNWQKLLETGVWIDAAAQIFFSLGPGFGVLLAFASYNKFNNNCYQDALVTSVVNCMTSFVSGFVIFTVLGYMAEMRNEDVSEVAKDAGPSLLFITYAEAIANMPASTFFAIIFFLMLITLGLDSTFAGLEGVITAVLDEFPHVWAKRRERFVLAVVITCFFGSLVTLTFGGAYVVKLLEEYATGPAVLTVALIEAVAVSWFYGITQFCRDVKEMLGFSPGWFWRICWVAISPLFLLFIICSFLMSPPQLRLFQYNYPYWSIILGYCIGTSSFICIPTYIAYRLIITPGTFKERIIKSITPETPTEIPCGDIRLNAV
# T6 sequence (P23975 whole entry): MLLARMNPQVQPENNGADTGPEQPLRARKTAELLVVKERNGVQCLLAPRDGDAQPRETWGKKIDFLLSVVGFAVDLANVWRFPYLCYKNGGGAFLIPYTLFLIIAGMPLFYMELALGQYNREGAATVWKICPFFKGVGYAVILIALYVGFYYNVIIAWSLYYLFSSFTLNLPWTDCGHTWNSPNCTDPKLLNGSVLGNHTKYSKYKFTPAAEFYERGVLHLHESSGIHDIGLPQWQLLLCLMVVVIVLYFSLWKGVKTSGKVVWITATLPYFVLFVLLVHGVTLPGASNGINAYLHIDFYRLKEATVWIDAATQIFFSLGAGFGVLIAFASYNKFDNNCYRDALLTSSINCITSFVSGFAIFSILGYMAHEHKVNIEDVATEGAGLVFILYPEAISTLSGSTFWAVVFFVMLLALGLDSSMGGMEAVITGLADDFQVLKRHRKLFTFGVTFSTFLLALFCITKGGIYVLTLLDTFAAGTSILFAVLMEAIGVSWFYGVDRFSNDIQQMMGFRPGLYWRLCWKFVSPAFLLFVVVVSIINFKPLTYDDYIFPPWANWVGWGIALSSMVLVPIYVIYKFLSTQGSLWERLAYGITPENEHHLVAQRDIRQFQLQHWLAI
# T5 sequence (P14416 whole entry): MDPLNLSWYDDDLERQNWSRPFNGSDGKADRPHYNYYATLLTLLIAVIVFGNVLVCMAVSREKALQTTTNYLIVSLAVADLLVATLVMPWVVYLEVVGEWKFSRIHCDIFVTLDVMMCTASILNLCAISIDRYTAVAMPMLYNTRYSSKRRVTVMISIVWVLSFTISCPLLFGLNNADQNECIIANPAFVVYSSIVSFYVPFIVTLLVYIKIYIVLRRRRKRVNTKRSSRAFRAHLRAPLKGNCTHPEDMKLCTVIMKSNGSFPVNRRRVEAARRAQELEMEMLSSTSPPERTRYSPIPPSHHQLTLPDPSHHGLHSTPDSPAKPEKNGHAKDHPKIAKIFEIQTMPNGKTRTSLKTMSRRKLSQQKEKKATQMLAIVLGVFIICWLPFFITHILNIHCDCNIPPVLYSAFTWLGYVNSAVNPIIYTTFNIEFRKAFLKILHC
# T1 sequence (Q923Y9 whole entry): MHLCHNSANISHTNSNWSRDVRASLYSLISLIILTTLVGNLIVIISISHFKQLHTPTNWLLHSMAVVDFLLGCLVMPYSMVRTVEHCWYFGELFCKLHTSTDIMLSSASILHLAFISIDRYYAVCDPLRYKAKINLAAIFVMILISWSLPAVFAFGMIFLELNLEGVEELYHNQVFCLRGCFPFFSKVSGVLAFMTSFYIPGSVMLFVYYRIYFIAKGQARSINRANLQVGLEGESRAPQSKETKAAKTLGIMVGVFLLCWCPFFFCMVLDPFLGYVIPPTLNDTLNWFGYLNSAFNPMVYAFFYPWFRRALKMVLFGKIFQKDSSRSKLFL
# T7 sequence (Q01959 whole entry): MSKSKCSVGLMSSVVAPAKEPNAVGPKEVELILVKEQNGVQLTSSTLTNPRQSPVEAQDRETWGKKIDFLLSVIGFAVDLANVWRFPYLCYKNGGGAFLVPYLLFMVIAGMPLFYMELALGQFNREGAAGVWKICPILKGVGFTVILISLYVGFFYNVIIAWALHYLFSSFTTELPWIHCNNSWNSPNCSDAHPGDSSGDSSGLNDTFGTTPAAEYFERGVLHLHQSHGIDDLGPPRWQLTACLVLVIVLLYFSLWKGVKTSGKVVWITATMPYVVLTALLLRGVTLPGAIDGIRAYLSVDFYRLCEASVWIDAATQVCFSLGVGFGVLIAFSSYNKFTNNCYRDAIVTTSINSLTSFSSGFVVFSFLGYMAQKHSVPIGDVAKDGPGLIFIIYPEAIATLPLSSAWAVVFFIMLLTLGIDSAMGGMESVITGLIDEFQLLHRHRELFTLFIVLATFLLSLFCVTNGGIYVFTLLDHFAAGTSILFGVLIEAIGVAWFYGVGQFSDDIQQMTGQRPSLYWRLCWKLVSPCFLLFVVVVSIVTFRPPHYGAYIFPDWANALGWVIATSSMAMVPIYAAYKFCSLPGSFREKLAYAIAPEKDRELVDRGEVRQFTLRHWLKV
# T2 sequence (Q923Y8 whole entry): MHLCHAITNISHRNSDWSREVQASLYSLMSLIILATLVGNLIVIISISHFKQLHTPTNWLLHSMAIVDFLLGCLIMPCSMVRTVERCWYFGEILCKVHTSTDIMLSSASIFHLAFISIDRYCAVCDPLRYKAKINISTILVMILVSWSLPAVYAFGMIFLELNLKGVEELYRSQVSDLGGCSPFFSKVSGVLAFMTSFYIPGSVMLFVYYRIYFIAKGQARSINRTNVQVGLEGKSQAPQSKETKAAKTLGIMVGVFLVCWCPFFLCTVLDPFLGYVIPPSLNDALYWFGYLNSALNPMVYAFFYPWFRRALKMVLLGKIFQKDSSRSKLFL
structure (smiles),measurement,setting,value
CNC(C)Cc1ccc2c(c1)OCO2 (centres unmarked) [MDMA],Ki,rat TAAR1,0.37 ± 0.12 µM
same,Ki,mouse TAAR1,2.4 µM
same,Ki,hα1A adrenergic receptor,> 8.7 µM
same,Ki,hα2A adrenergic receptor,> 5.1 µM
same,Ki,[1],> 6.3 µM
same,Ki,hNET,> 9.7 µM
same,Ki,hDAT,> 8.5 µM
same,Ki,hSERT,> 7.5 µM
